Paper PMC11062899, “De novo development of small cyclic peptides that are orally bioavailable” (Nature Chemical Biology, 2023)
Where “and” joins values, the source holds several entries; their conditions need not be identical. Equal entries are not always repeated.

Tests used:
human α-thrombin = human α-thrombin (Homo sapiens, UniProt P00734); assay: Protease inhibition, Ki for human α-thrombin (fluorogenic substrate Z-Gly-Gly-Arg-AMC); assay type: biochemical; conditions: replicates R1-R3
Procedure, shortened: (§1)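 Ki derived through Cheng–Prusoff from IC50s (four-parameter logistic fit) against activity of peptide-free controls. Product fluorescence was read every 3 min over 30 min at 25 °C, substrate Z-Gly-Gly-Arg-AMC at 50 μM. Enzyme was 2 nM human or 3 nM rat α-thrombin, pH 7.4 buffer.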

rat α-thrombin = target: T1, rat α-thrombin (Rattus norvegicus, UniProt P18292); assay: Protease inhibition, Ki for rat α-thrombin (fluorogenic substrate Z-Gly-Gly-Arg-AMC); assay type: biochemical; conditions: replicates R1-R3
T1 construct: rat α-thrombin (Molecular Innovations) were used at final concentrations of 2 nM and 3 nM; purchased Molecular Innovations
Procedure, shortened: as §1

porcine pepsin = target: T2, porcine pepsin (Sus scrofa, UniProt P00791); assay: Peptide stability in simulated gastric fluid (SGF); assay type: in vitro ADME
T2 construct: 0.32 g of porcine pepsin (Sigma-Aldrich, P7125) was dissolved under gentle agitation; purchased Sigma-Aldrich P7125
Experimental: (§2) Simulated gastric and intestinal fluids were prepared according to the States Pharmacopeia specifications (Test Solutions, United States Pharmacopeia 35, NF 30, 2012). SGF: 0.2 g of sodium chloride was dissolved in 50 ml of water, and the pH was adjusted to 1.2 by addition of 0.7 ml of 10 M hydrochloric acid. Then, 0.32 g of porcine pepsin (Sigma-Aldrich, P7125) was dissolved under gentle agitation, and the volume was filled up to 100 ml with Milli-Q water. SIF: 0.68 g of monobasic potassium phosphate was dissolved in 25 ml of Milli-Q water, and the pH was adjusted to 6.8 by adding 7.7 ml of a 0.2 M sodium hydroxide solution. Next, 1 g of porcine pancreatin (Sigma-Aldrich, P3292) was added under gentle agitation, and the volume was adjusted to 100 ml with Milli-Q water to afford a fine suspension. To test the stability in simulated gastrointestinal fluids, 396 μl of SGF or SIF was pre-heated at 37 °C for 10 min, and 4 μl of a 1 mM peptide solution in DMSO was added. […] Supernatant was analyzed by LC–MS to measure the peptide concentrations at the different timepoints. Residual peptide was calculated by normalizing the concentrations measured at T1 to T0.

[1] = Peptide stability in simulated intestinal fluid (SIF); assay type: in vitro ADME, porcine; conditions: simulated gi fluid; 8 h, 37 °C, pH 6.8; read-out: Proteolytic stability: SIF (8 h) % remaining
Experimental: as §2

porcine pancreatin = assay: as above; assay type: in vitro ADME; conditions: after 8 h vs 0 h (TIC); average of R1-R3
Experimental: as §2

[2] = Passive artificial membrane permeability (PAMPA)
[3] = Metabolic stability in rat liver microsomes (RLMs); conditions: rat, microsomes
[4] = peptide 1.33E+02 uM, slope of proteolytic substrate cleavage over time

T2 sequence (P00791 60-385): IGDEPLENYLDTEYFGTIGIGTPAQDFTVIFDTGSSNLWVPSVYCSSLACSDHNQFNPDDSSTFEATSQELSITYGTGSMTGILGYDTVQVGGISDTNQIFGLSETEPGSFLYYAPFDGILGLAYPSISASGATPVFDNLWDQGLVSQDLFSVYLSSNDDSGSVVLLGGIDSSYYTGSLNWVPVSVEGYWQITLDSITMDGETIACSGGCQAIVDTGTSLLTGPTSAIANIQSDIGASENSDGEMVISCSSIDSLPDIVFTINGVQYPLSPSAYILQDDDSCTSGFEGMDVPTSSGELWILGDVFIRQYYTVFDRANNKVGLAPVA

Human alpha thrombin inhibition, slope normalized to DMSO (human α-thrombin; peptide 1.02E-03 uM): 98.5 and 92.4 and 98.3
Human alpha thrombin inhibition, slope normalized to DMSO (human α-thrombin; peptide 1.04E+00 uM): 56.0 and 56.7 and 59.7
Human alpha thrombin inhibition, slope normalized to DMSO (human α-thrombin; peptide 1.27E-04 uM): 96.6 and 96.4 and 97.8
Human alpha thrombin inhibition, slope normalized to DMSO (human α-thrombin; peptide 1.30E-01 uM): 89.4 and 79.1 and 90.0
Human alpha thrombin inhibition, slope normalized to DMSO (human α-thrombin; [4]): 3.8 and 5.6 and 7.2
Human alpha thrombin inhibition, slope normalized to DMSO (human α-thrombin; peptide 1.63E-02 uM): 96.8 and 95.2 and 98.6
Human alpha thrombin inhibition, slope normalized to DMSO (human α-thrombin; peptide 1.67E+01 uM): 11.2 and 13.1 and 6.6
Human alpha thrombin inhibition, slope normalized to DMSO (human α-thrombin; peptide 2.03E-03 uM): 96.1 and 91.3 and 98.5
Human alpha thrombin inhibition, slope normalized to DMSO (human α-thrombin; peptide 2.08E+00 uM): 44.5 and 43.9 and 46.9
Human alpha thrombin inhibition, slope normalized to DMSO (human α-thrombin; peptide 2.54E-04 uM): 98.7 and 101.9 and 92.3
Human alpha thrombin inhibition, slope normalized to DMSO (human α-thrombin; peptide 2.60E-01 uM): 82.9 and 76.8 and 85.2
Human alpha thrombin inhibition, slope normalized to DMSO (human α-thrombin; peptide 3.18E-05 uM): 98.4 and 99.1 and 103.6
Human alpha thrombin inhibition, slope normalized to DMSO (human α-thrombin; peptide 3.26E-02 uM): 83.8 and 90.0 (2×)
Human alpha thrombin inhibition, slope normalized to DMSO (human α-thrombin; peptide 3.33E+01 uM): 7.3 and 17.9 and 6.7
Human alpha thrombin inhibition, slope normalized to DMSO (human α-thrombin; peptide 4.07E-03 uM): 97.5 and 98.3 and 97.0
Human alpha thrombin inhibition, slope normalized to DMSO (human α-thrombin; peptide 4.17E+00 uM): 31.6 and 18.4 and 32.8
Human alpha thrombin inhibition, slope normalized to DMSO (human α-thrombin; peptide 5.09E-04 uM): 94.9 and 94.8 and 96.2
Human alpha thrombin inhibition, slope normalized to DMSO (human α-thrombin; peptide 5.21E-01 uM): 73.3 and 69.5 and 73.8
Human alpha thrombin inhibition, slope normalized to DMSO (human α-thrombin; peptide 6.36E-05 uM): 99.0 and 95.7 and 105.1
Human alpha thrombin inhibition, slope normalized to DMSO (human α-thrombin; peptide 6.51E-02 uM): 92.9 and 89.5 and 93.7
Human alpha thrombin inhibition, slope normalized to DMSO (human α-thrombin; peptide 6.67E+01 uM): 5.0 (2×) and 5.6
Human alpha thrombin inhibition, slope normalized to DMSO (human α-thrombin; peptide 8.14E-03 uM): 98.2 and 94.5 and 89.6
Human alpha thrombin inhibition, slope normalized to DMSO (human α-thrombin; peptide 8.33E+00 uM): 20.4 and 21.3 and 21.0
Rat alpha thrombin inhibition, slope normalized to DMSO (rat α-thrombin; [4]): 2.5 and 3.0 and 16.1
Rat alpha thrombin inhibition, slope normalized to DMSO (rat α-thrombin; peptide 1.67E+01 uM): 7.6 and 7.2 and 19.3
Rat alpha thrombin inhibition, slope normalized to DMSO (rat α-thrombin; peptide 2.08E+00 uM): 36.1 and 33.7 and 41.7
Slope normalized to DMSO (proteolytic substrate cleavage over time) (rat α-thrombin; peptide 2.54E-04 uM): 99.5 and 98.8
Slope normalized to DMSO (proteolytic substrate cleavage over time) (rat α-thrombin; peptide 3.18E-05 uM): 98.9
Rat alpha thrombin inhibition, slope normalized to DMSO (rat α-thrombin; peptide 3.33E+01 uM): 4.5 and 3.9 and 18.0
Rat alpha thrombin inhibition, slope normalized to DMSO (rat α-thrombin; peptide 4.17E+00 uM): 21.1 and 20.6 and 33.2
Slope normalized to DMSO (proteolytic substrate cleavage over time) (rat α-thrombin; peptide 6.36E-05 uM): 99.5
Slope normalized to DMSO (proteolytic substrate cleavage over time) (rat α-thrombin; peptide 6.51E-02 uM): 99.3
Rat alpha thrombin inhibition, slope normalized to DMSO (rat α-thrombin; peptide 6.67E+01 uM): 2.7 and 2.5 and 17.0
Slope normalized to DMSO (proteolytic substrate cleavage over time) (rat α-thrombin; peptide 8.14E-03 uM): 99.8 and 99.9
Rat alpha thrombin inhibition, slope normalized to DMSO (rat α-thrombin; peptide 8.33E+00 uM): 14.3 and 13.8 and 26.6
SGF stability, Residual peptide Average (porcine pepsin; after 8 h vs 0 h (TIC), average of R1-R3): 103.72
SGF stability, Residual peptide (porcine pepsin; after 8 h vs 0 h (TIC), single replicates R1-R3): 109.74 and 107.42 and 94.00
remaining at 8 h (porcine pepsin; simulated gi fluid, 8 h, 37 °C, pH 1.2, read-out: Proteolytic stability: SGF (8 h) % remaining): 104 ± 8%
remaining at 8 h [1]: 96 ± 11%
SIF stability, Residual peptide Average (porcine pancreatin): 95.61
PAMPA permeability: % permeability ([2]; 50 μM, 12–18 h, acceptor concentration relative to equilibrium): 2.0 ± 1.7%
Papp at 50 μM ([2]; PAMPA, pH 7.4): 0.107 ×10⁻⁶ cm/s
Permeability% Average ([2]; PAMPA, average of R1-R3): 2.0%
Permeability% R1 ([2]; PAMPA, replicate R1, TIC of top well sample relative to sample at theoretical equilibrium): 3.95%
Permeability% R3 ([2]; PAMPA, replicate R3, TIC of top well sample relative to sample at theoretical equilibrium): 1.45%
microsomal CLint ([3]; CL (ul/min/mg protein) R1, RLM CL, replicate R1): 187 µL/min/mg
microsomal CLint ([3]; CL (ul/min/mg protein) R2, RLM CL, replicate R2): 117 µL/min/mg
microsomal CLint ([3]; CL (ul/min/mg protein) R3, RLM CL, replicate R3): 148 µL/min/mg
half-life ([3]; Half Life (min) R1, RLM metabolic stability, replicate R1, 0-60 min): 7.4 min
half-life ([3]; Half Life (min) R2, RLM metabolic stability, replicate R2, 0-60 min): 11.9 min
half-life ([3]; Half Life (min) R3, RLM metabolic stability, replicate R3, 0-60 min): 9.38 min
half-life ([3]; Metabolic stability: Half life T1/2 (min), RLMs, mean and SD, three measurements): 9.5 ± 1.8 min
microsomal CLint ([3]; Metabolic stability: RLM CL (ul/min/mg), RLMs, mean and SD, three measurements): 151 ± 29 µL/min/mg
microsomal CLint ([3]; Metabolic stability: RLM CL Average, summary table, average of R1-R3): 151 µL/min/mg
microsomal CLint ([3]; Metabolic stability: RLM CL R1, summary table, rounded, replicate R1): 187 µL/min/mg
microsomal CLint ([3]; Metabolic stability: RLM CL R2, summary table, rounded, replicate R2): 117 µL/min/mg
microsomal CLint ([3]; Metabolic stability: RLM CL R3, summary table, rounded, replicate R3): 148 µL/min/mg
SMILES: O=C1CC2CCN(CC2)C(=O)[C@H](Cc2ccccc2)NC(=O)[C@@H](NC(=O)c2ccc(Cl)s2)CSCCS(=O)(=O)CCSCCN1 [compound 13]
